The results in this text go back to patent US10519098B2, “Aromatic derivatives as anti-malarial” (Council of Scientific & Industrial Research, priority 2014, dated 2019).

Read-outs that look alike come from different tables or passages of the source.

The subject of data set [1] is Chloroquine-sensitive (3D7) strain of P. falciparum. The experiment in a line: Malaria SYBR Green I-based fluorescence (MSF) assay, 3D7 strain. The format is cell-based. The note with it: Plasmodium falciparum. The method, then: (§1) The stock (5 mg/mL or 10 mM) solutions of extracts were prepared in DMSO and required dilutions were made in culture medium.
(§2) Two-fold serial dilutions of test samples were made in 96 well plates and incubated with 1.0% parasitized cell suspension containing 0.8% parasitaemia (Asynchronous culture with more than 80% ring stages). The plates were incubated at 37° C. in CO2 incubator in an atmosphere of 5% CO2 and air mixture. 72 hours later 100 μL of lysis buffer containing 2× concentration of SYBR Green-I (Invitrogen) was added to each well and incubated for one hour at 37° C. The plates were examined at 485±20 nm of excitation and 530±20 nm of emission for relative fluorescence units (RFUs) per well using the fluorescence plate reader (FLX800, BIOTEK). IC50 values were obtained by Logit regression analysis of dose response curves (Singh et al. 2011).

A further data set can be described thus: in vitro. The note with it: monkey. As for the experimental part: The cells were incubated with test sample dilutions for 72 h and MTT was used as reagent for detection of cytotoxicity. Podophyllotoxin (SIGMA) was used as the standard reference drug.
The subject of data set [2] is Chloroquine-resistant (K1) strain of P. falciparum. Description: Malaria SYBR Green I-based fluorescence (MSF) assay, K1 strain. The format is cell-based. The note with it: Plasmodium falciparum. The method, then: as §1, §2
Where [3] appears, read: P. falciparum 3D7, 72 hours incubation, read-out: IC50 against 3D7.
The mark [4] stands for this setting: P. falciparum K1, 72 hours incubation, read-out: IC50 against K1.
Setting [5] is: 3D7, range given for listed compounds, read-out: IC50 values against 3D7 culture.
Setting [6] is: K1, range given for listed compounds, read-out: IC50 values against K1 culture.

For `COc1ccccc1[C@H](COC(=O)/C=C/c1ccccc1)OC(=O)/C=C/c1ccccc1` [Compound 12, (R)-1-(2-methoxyphenyl)ethane-1,2-diyl (2E,2′E)-bis(3-phenylacrylate)], the IC50 (commonly the concentration that inhibits the measured activity by half) in data set [1] (setting [3]) is greater than 5 µM. Besides, in “in vitro”, the CC50 at 72 h was 51.7 µM.

On to `COc1cccc([C@@H](COC(=O)/C=C/c2ccccc2)OC(=O)/C=C/c2ccccc2)c1OC` [Compound 23, (S)-1-(2,3-dimethoxyphenyl)ethane-1,2-diyl (2E,2′E)-bis(3-phenyl acrylate)], for which, in data set [1] (setting [3]), the IC50 is greater than 5 µM. This compound also displayed a CC50 at 72 h in “in vitro” of 28.4 µM.

`COc1cc([C@H](CNC(=O)/C=C/c2ccccc2)OC(=O)/C=C/c2ccccc2)cc(OC)c1OC` [Compound 6, (R)-2-cinnamamido-1-(3,4,5-trimethoxyphenyl)ethyl cinnamate]: the melting point (as a rule, the temperature of the solid-liquid transition) was 126 to 127 °C. The IC50 in data set [1] (setting [3]) was greater than 5 µM. For the same compound, the CC50 at 72 h in the data set “in vitro” is 5.08 µM.

The compound `O=C(/C=C/c1ccccc1)NC[C@H](OC(=O)/C=C/c1ccccc1)c1ccc2c(c1)OCO2` [Compound 34, (R)-1-(benzo[d][1,3]dioxol-5-yl)-2-cinnamamidoethyl cinnamate] registered a melting point of 200 to 202 °C. Also, the IC50 in data set [1] (setting [3]) is greater than 5 µM. Also, the CC50 at 72 h in “in vitro” was greater than 200 µM.

With `O=C(/C=C/c1ccccc1)OC[C@H](OC(=O)/C=C/c1ccccc1)c1ccc2c(c1)OCO2` [Compound 36, (R)-1-(benzo[d][1,3]dioxol-5-yl)ethane-1,2-diyl(2E,2′E)-bis(3-phenyl acrylate)], the melting point lay within 108 to 110 °C. Also, the IC50 in data set [1] (setting [3]) was greater than 5 µM. The same compound returned a CC50 at 72 h in “in vitro” of 56.6 µM.

Turning to `COc1ccc([C@H](CNC(=O)/C=C/c2ccccc2)OC(=O)/C=C/c2ccccc2)cc1` [Compound 18, (R)-2-cinnamamido-1-(4-methoxyphenyl)ethyl cinnamate], the melting point is 138 to 140 °C. Further, in data set [1] (setting [3]), the IC50 was greater than 5 µM.

Turning to `COc1cccc([C@@H](COC(=O)/C=C/c2ccccc2)OC(=O)/C=C/c2ccccc2)c1` [Compound 15, (S)-1-(3-methoxyphenyl)ethane-1,2-diyl (2E,2′E)-bis(3-phenylacrylate)], the melting point was 67 to 69 °C. The IC50 in data set [1] (setting [3]) is greater than 5 µM. This compound registered a CC50 at 72 h in the data set “in vitro” of 61.9 µM.

Take `CCCC(=O)NC[C@@H](OC(=O)CCC)c1ccc(OC)c(OC)c1` [Compound 45, (S)-2-butyramido-1-(3,4-dimethoxyphenyl)ethyl butyrate]: the IC50 in data set [1] (setting [3]) and in data set [2] (setting [4]) was greater than 10 µM in each case. The CC50 at 72 h in the data set “in vitro” came out at 51.8 µM.

`O=C(/C=C/c1ccccc1)OC[C@H](OC(=O)/C=C/c1ccccc1)c1ccccc1` [Compound 28, (R)-1-phenylethane-1,2-diyl (2E,2′E)-bis(3-phenylacrylate)]: the melting point fell in the range of 132 to 134 °C. Further, the IC50 in data set [1] (setting [3]) was greater than 5 µM. This compound also showed a CC50 at 72 h in “in vitro” of 30.3 µM.

Take `COc1ccc([C@H](COC(=O)/C=C/c2ccccc2)OC(=O)/C=C/c2ccccc2)cc1OC` [Compound 4, (R)-1-(3,4-dimethoxyphenyl)ethane-1,2-diyl (2E,2′E)-bis(3-phenyl acrylate)]: the IC50 in data set [1] (setting [3]) and in data set [2] (setting [4]) was greater than 5 µM throughout. This compound also displayed a CC50 at 72 h in “in vitro” of 5.87 µM.

`COc1cccc([C@H](COC(=O)/C=C/c2ccccc2)OC(=O)/C=C/c2ccccc2)c1OC` [Compound 24, (R)-1-(2,3-dimethoxyphenyl)ethane-1,2-diyl(2E,2′E)-bis(3-phenyl acrylate)]: the half-maximal inhibitory concentration (IC50) in data set [1] (setting [3]) is greater than 5 µM. Besides, the CC50 at 72 h in the data set “in vitro” was found to be 82.7 µM.

For the compound `COc1cc([C@H](COC(=O)/C=C/c2ccccc2)OC(=O)/C=C/c2ccccc2)cc(OC)c1OC` [Compound 8, (R)-1-(3,4,5-trimethoxyphenyl)ethane-1,2-diyl (2E,2′E)-bis(3-phenyl acrylate)], the IC50 in data set [1] (setting [3]) is greater than 5 µM. Also, the CC50 at 72 h in “in vitro” came to 122 µM.

For the compound `O=C(/C=C/c1ccccc1)OC[C@H](OC(=O)/C=C/c1ccccc1)c1cccc2c1OCO2` [Compound 38, (R)-1-(benzo[d][1,3]dioxol-4-yl)ethane-1,2-diyl(2E,2′E)-bis(3-phenyl acrylate)], the results for the IC50 in data set [1] (setting [3]) and in data set [2] (setting [4]) were 7.42 µM and greater than 10 µM, respectively. In the data set “in vitro”, this compound yielded a CC50 at 72 h greater than 200 µM.

Turning to `COc1cc([C@@H](COC(=O)/C=C/c2ccccc2)OC(=O)/C=C/c2ccccc2)cc(OC)c1OC` [Compound 7, (S)-1-(3,4,5-trimethoxyphenyl)ethane-1,2-diyl(2E,2′E)-bis(3-phenyl acrylate)], the IC50 in data set [1] (setting [5]) was 2 to 7 µM; in data set [1] (setting [3]), 3.37 µM; in data set [2] (setting [6]), 1.5 to 4 µM; in data set [2] (setting [4]), 3.47 µM. For the same compound, the CC50 at 72 h in “in vitro” is 6.44 µM.

As to `COc1ccc([C@@H](CNC(=O)/C=C/c2ccccc2)OC(=O)/C=C/c2ccccc2)cc1` [Compound 17, (S)-2-cinnamamido-1-(4-methoxyphenyl)ethyl cinnamate], the melting point was in the range of 137 to 139 °C. For the same compound, in data set [1] (setting [3]), the IC50 was greater than 5 µM.

In the case of `CCN(CC)CCCC(C)Nc1ccnc2cc(Cl)ccc12` (centres unmarked) [CQ, Chloroquine, reference compound], the IC50 in data set [1] (3D7, 72 h, read-out: IC50 against 3D7) is 0.005 µM; in data set [2] (K1, 72 h, read-out: IC50 against K1), 0.25 ± 0.02 µM.

As for `COc1ccccc1[C@@H](COC(=O)/C=C/c1ccccc1)OC(=O)/C=C/c1ccccc1` [Compound 11, (S)-1-(2-methoxyphenyl)ethane-1,2-diyl (2E,2′E)-bis(3-phenylacrylate)], the IC50 in data set [1] (setting [5]) was 2 to 7 µM; in data set [1] (setting [3]) it was 3.8 µM; in data set [2] (setting [6]) it was 1.5 to 4 µM; in data set [2] (setting [4]) it was 3.23 µM. In “in vitro”, this compound came in with a CC50 at 72 h of 14 µM.

For `O=C(/C=C/c1ccccc1)OC[C@@H](OC(=O)/C=C/c1ccccc1)c1cccc2c1OCO2` [Compound 37, (S)-1-(benzo[d][1,3]dioxol-4-yl)ethane-1,2-diyl(2E,2′E)-bis(3-phenyl acrylate)], the IC50 in data set [1] (setting [3]) and in data set [2] (setting [4]) was greater than 10 µM in each case. The CC50 at 72 h in “in vitro” is greater than 200 µM.

On to `COc1ccc([C@@H](COC(=O)/C=C/c2ccccc2)OC(=O)/C=C/c2ccccc2)cc1OC` [Compound 3, (S)-1-(3,4-dimethoxyphenyl)ethane-1,2-diyl(2E,2′E)-bis(3-phenyl acrylate)], for which the IC50 in data set [1] (setting [3]) is greater than 5 µM. This compound also displayed a CC50 at 72 h in the data set “in vitro” of 24.3 µM.

With `COc1ccc([C@@H](CNC(=O)/C=C/c2cccc(O[Si](C)(C)C(C)(C)C)c2)OC(=O)/C=C/c2cccc(O[Si](C)(C)C(C)(C)C)c2)cc1OC` [Compound 47, (S)-2-((E)-3-(3-((tert-butyldimethylsilyl)oxy)phenyl)acrylamido)-1-(3,4-dimethoxyphenyl)ethyl (E)-3-(3-((tert-butyldimethylsilyl)oxy)phenyl)acrylate], the IC50 in data set [1] (setting [3]) is greater than 10 µM; in data set [2] (setting [4]), 7.52 µM. Further, in the data set “in vitro”, the CC50 at 72 h was 52.6 µM.

Take `COc1ccc([C@@H](CNC(=O)/C=C/c2ccccc2O[Si](C)(C)C(C)(C)C)OC(=O)/C=C/c2ccccc2O[Si](C)(C)C(C)(C)C)cc1OC` [Compound 46, (S)-2-((E)-3-(2-((tert-butyldimethylsilyl)oxy)phenyl)acrylamido)-1-(3,4-dimethoxyphenyl)ethyl (E)-3-(2-((tert-butyldimethylsilyl)oxy)phenyl)acrylate]: the IC50 turned out to be 8.49 µM in data set [1] (setting [3]) and 4.56 µM in data set [2] (setting [4]). Moreover, the CC50 at 72 h in the data set “in vitro” is 58.9 µM.
